Measurements reported in patent publication US11919883B2, “Metalloenzyme inhibitor compounds” (Ji Xing Pharmaceuticals Hong Kong Limited, priority 2016, dated 2024).

Legend:
[1] = target: T1, recombinant human CYP11B2 (Homo sapiens, UniProt P19099); assay: CYP11B2 enzyme assay, enzyme enriched microsomes from V79-4 cells, aldosterone by LC-MS; format: biochemical; conditions: IC50 ranges; run at Km of 11-deoxycorticosterone; read-out: hCYP11B2 IC50
T1 construct: made in house; host or cells: V79-4 cells (enzyme enriched microsomal fraction of cell lysates)
T1 sequence (P19099 25-503): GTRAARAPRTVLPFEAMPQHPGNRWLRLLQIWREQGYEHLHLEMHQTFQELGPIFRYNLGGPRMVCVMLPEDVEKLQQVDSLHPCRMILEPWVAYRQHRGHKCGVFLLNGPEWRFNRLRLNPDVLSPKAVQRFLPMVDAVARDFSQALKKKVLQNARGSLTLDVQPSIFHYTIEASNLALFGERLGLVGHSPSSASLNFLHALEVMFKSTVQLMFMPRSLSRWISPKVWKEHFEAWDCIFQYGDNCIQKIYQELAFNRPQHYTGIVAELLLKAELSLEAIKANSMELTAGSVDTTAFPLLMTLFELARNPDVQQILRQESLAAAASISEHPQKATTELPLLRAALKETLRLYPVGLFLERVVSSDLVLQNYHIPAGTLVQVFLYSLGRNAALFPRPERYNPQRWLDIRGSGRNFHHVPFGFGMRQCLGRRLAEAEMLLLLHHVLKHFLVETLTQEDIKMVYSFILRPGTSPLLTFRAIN

[2] = target: T2, recombinant human CYP11B1 (Homo sapiens, UniProt P15538); assay: CYP11B1 enzyme assay, enzyme enriched microsomes from V79-4 cells, cortisol by LC-MS; format: biochemical; conditions: IC50 ranges; run at Km of 11-deoxycortisol; read-out: hCYP11B1 IC50
T2 construct: made in house; host or cells: V79-4 cells (enzyme enriched microsomal fraction of cell lysates)
T2 sequence (P15538 25-503): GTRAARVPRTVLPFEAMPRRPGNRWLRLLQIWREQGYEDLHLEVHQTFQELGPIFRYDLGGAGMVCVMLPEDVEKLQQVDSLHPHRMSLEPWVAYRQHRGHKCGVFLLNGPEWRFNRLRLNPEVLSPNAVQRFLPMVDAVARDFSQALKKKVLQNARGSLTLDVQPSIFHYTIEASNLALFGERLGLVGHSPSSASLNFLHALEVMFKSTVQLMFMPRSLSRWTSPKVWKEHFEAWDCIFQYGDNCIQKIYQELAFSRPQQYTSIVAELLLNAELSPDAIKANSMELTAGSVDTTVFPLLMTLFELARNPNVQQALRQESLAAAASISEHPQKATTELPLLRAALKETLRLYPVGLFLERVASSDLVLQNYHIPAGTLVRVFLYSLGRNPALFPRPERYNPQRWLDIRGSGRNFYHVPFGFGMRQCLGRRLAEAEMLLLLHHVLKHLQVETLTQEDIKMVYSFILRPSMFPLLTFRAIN

| Compound | IC50 [1] [nM] | IC50 [2] [nM] |
| --- | --- | --- |
| Fc1ccc2nc(-c3cncnc3)n(C3CC3)c2c1F [Example 2, 1-Cyclopropyl-6,7-difluoro-2-(pyrimidin-5-yl)-1H-benzo[d]imidazole] | 100 to 1000 | 1000 to 10000 |
| N#Cc1ccc2nc(-c3cncnc3)n(C3CC3)c2c1 [Example 3, 1-Cyclopropyl-2-(pyrimidin-5-yl)-1H-benzo[d]imidazole-6-carbonitrile] | 1 to 100 | 1000 to 10000 |
| Cc1ncncc1-c1nc2ccc(F)cc2n1C1CC1 [Example 4, 1-Cyclopropyl-6-fluoro-2-(4-methylpyrimidin-5-yl)-1H-benzo[d]imidazole] | 1 to 100 | 1000 to 10000 |
| CCc1ncncc1-c1nc2ccc(F)cc2n1C1CC1 [Example 5, 1-Cyclopropyl-2-(4-ethylpyrimidin-5-yl)-6-fluoro-1H-benzo[d]imidazole] | 1 to 100 | 1000 to 10000 |
| COc1ncncc1-c1nc2ccc(F)cc2n1C1CC1 [Example 6, 1-Cyclopropyl-6-fluoro-2-(4-methoxypyrimidin-5-yl)-1H-benzo[d]imidazole] | 100 to 1000 | > 10000 |
| Fc1cc2nc(-c3cncnc3)n(C3CC3)c2cc1F [Example 7, 1-Cyclopropyl-5,6-difluoro-2-(pyrimidin-5-yl)-1H-benzo[d]imidazole] | 1 to 100 | 1000 to 10000 |
| CCc1ncncc1-c1nc2ccc(C#N)cc2n1C1CC1 [Example 8, 1-Cyclopropyl-2-(4-ethylpyrimidin-5-yl)-1H-benzo[d]imidazole-6-carbonitrile] | 1 to 100 | 1000 to 10000 |
| Fc1ccc2nc(-c3cncnc3Cl)n(C3CC3)c2c1 [Example 9, 2-(4-Chloropyrimidin-5-yl)-1-cyclopropyl-6-fluoro-1H-benzo[d]imidazole] | 1 to 100 | 1000 to 10000 |
| N#Cc1ncncc1-c1nc2ccc(F)cc2n1C1CC1 [Example 10, 5-(1-Cyclopropyl-6-fluoro-1H-benzo[d]imidazol-2-yl)pyrimidine-4-carbonitrile] | 1 to 100 | 1000 to 10000 |
| CCc1ncncc1-c1nc2ccc(Cl)cc2n1C1CC1 [Example 11, 6-Chloro-1-cyclopropyl-2-(4-ethylpyrimidin-5-yl)-1H-benzo[d]imidazole] | 1 to 100 | 1000 to 10000 |
| CNc1ncncc1-c1nc2ccc(F)cc2n1C1CC1 [Example 12, 5-(1-Cyclopropyl-6-fluoro-1H-benzo[d]imidazol-2-yl)-N-methylpyrimidin-4-amine] | 1 to 100 | 100 to 1000 |
| CC(C)c1ncncc1-c1nc2ccc(F)cc2n1C1CC1 [Example 13, 1-Cyclopropyl-6-fluoro-2-(4-isopropylpyrimidin-5-yl)-1H-benzo[d]imidazole] | 1 to 100 | 1000 to 10000 |
| CCCc1ncncc1-c1nc2ccc(F)cc2n1C1CC1 [Example 14, 1-Cyclopropyl-6-fluoro-2-(4-propylpyrimidin-5-yl)-1H-benzo[d]imidazole] | 1 to 100 | 1000 to 10000 |
| Fc1ccc2nc(-c3cncnc3C(F)F)n(C3CC3)c2c1 [Example 15, 1-Cyclopropyl-2-(4-(difluoromethyl)pyrimidin-5-yl)-6-fluoro-1H-benzo[d]imidazole] | 1 to 100 | 1000 to 10000 |
| CCc1ncncc1-c1nc2ccc(F)cc2n1CC [Example 16, 1-Ethyl-2-(4-ethylpyrimidin-5-yl)-6-fluoro-1H-benzo[d]imidazole] | 100 to 1000 | 1000 to 10000 |
| CCc1ncncc1-c1nc2ccc(F)c(F)c2n1C1CC1 [Example 17, 1-Cyclopropyl-2-(4-ethylpyrimidin-5-yl)-6,7-difluoro-1H-benzo[d]imidazole] | 1 to 100 | 1000 to 10000 |
| CCn1c(-c2cncnc2C)nc2ccc(C#N)cc21 [Example 18, 1-Ethyl-2-(4-methylpyrimidin-5-yl)-1H-benzo[d]imidazole-6-carbonitrile] | 1 to 100 | 1000 to 10000 |
| CC(=O)NCc1ncncc1-c1nc2ccc(F)cc2n1C1CC1 [Example 19, N-((5-(1-Cyclopropyl-6-fluoro-1H-benzo[d]imidazol-2-yl)pyrimidin-4-yl)methyl)acetamide] | 1000 to 10000 | > 10000 |
